# In patent US20050272677A1, “Delivery of a substance to a pre-determined site” (priority 2002, published 2005):
# B1: G22C E. coli (protein, UniProt P0A742 1-136, looked up, variant G22C)
# Large-conductance …: MSIIKEFREFAMRGNVVDLAVCVIIGAAFGKIVSSLVADIIMPPLGLLIGGIDFKQFAVTLRDAQGDIPAVVMHYGVFIQNVFDFLIVAFAIFMAIKLINKLNRKKEEPAAAPAPTKEEVLLTEIRDLLKEQNNRS
# Columns and labels:
# [1] = Sol-gel phase transition temperature and photo-switching by CD spectroscopy; format: physicochemical
# Description: (§1) In a typical gelation experiment, a carefully weighed amount of the dithienylcyclopentene derivative under investigation and 1 ml of the solvent are placed in a test tube, which is sealed and then heated until the compound is dissolved. The solution is allowed to cool to room temperature. […] The gelation process could be followed by UV-vis and CD spectroscopy as depicted in FIG. 58. At low concentrations (0.35 mM), compound D is dissolved in toluene. […] Increasing the concentration to 1.8 mM causes gelation of the solvent, which is accompanied by a change of the UV-visible spectrum, together with the appearance of a strong CD signal at 323 nm (FIG. 58, panels (a) and (c)). Similar changes in the UV-vis and CD spectrum are observed upon gelation of the 1.8 mM solution of D in toluene by cooling to a temperature below the sol-gel phase transition (from here on, referred to as gel(o)). From a plot of the increase of the CD signal versus the temperature, the sol-gel phase transition temperature of gel(o) was determined to be 29° C. for a 1.8 mM solution of D in toluene.
# In a typical photo-switching experiment, a solution (1.8 mM) of Compound D in toluene was prepared by cooling from 70° C. to the desired temperature (typically between 30° C. and 60° C., i.e., above the gel-sol phase transition temperature of the open form of D) in a cuvette of 1 mm path length. This solution was then irradiated at λ1=313 nm to convert the ring-open form of Compound D to the ring-closed form. By using a 150 W Xe lamp and a 313 nm bandpass filter, the photo-stationary state (PSS) was reached, typically within 10 minutes, which consist of 60 mol % of the closed form and 40 mol % of the open form.
# [2] = Gelation experiment (gel formation in solvents); format: physicochemical
# Description: To obtain a gel or to thicken the solvent, the compound is mixed with the required solvent or a mixture of solvents in an amount between 0.01 and 50 wt. %, based on the weight of the composition. Typically, the dissolution of the components will be performed by heating (in some cases it may be helpful to homogenize the components, e.g., vortex) them together at temperatures of 20° C. to 200° C., preferably 50° C. to 150° C. Cooling these hot solutions to a preferred temperature in the range of −20° C. to 100° C., preferably 4° C. to 100° C. affords the gel or thickened solvent. […] In an alternative embodiment, the gelling agent is first dissolved in a polar or apolar solvent followed by the addition of another solvent or solvent mixture, thereby causing gelation to take place.
# It will be understood that the use of the present gelling agents or thickeners to prepare a gel or to thicken a composition is also encompassed by the invention. As is well-known, gelling behavior of compounds or compositions is highly unpredictable. […] Preferably, the gelling phenomenon is thermoreversible.
# as §1
# [3] = Urinary excretion of IOT after subcutaneous injection; format: in vivo, rat; details: conscious rats
# Description: DOPC/DOPS (90:10, mol/mol) and DOPC/DOPE liposomes (70:30, mol/mol) liposomes were tested.
# Male Wistar rats remained conscious throughout the study. To increase the time-resolution, the diuretic furosemide (10 mg/kg dose s.c) was given in the morning, seven hours before administration of the sample. Urine was collected automatically with a one hour resolution. The concentration of IOT in the urine was measured by HPLC.
# α-chymotrypsin = α-chymotrypsin (Bos taurus, UniProt P00766); assay: Cleavage of prodrug-gelling agent conjugate by α-chymotrypsin in gel and solution; format: biochemical
# Description: The prodrug has been mixed with several gelators (neutral: C3-Am-Meth-Am-CH2CH2OCH2CH2OH as well as ionizable: DBC and C3-Am-Meth-OH) and stabile gels were obtained (0.25 wt % of the prodrug and 0.5 wt % of the gelator). […] This difference could be observed with the naked eye: after 20 minutes, the solution containing the prodrug turned bright yellow (due to the release of nitroaniline, whereas the gel containing the prodrug turned slightly yellow only after 20 hours.
# [4] = Subcutaneous pH reduction by MES buffer; format: in vivo, rat; details: pH 6.1, 0.5 ml s.c.
# Description: Male Wistar rats remained conscious throughout the study. The subcutaneous pH was constantly recorded using a micro-glass electrode. After stabilization of the pH, 0.5 ml MES buffer (pH 6.1) was injected approximately 3 mm from the pH electrode. The effect of different molarities (50, 100 and 250 mM) of the MES buffer on the time-course of pH reduction was tested.
# [5] = Urinary excretion of MAG3 after subcutaneous or intravenous injection; details: free compound
# Description: The effect of drug formulation on the rate of drug release in vivo was tested in the rat by external counting of radioactivity.
# DOPC/DOPS (90:10, mol/mol) liposomes with or without the MscL-mutant G22C were used (protein-to-lipid ratio of 1:20, wt/wt).
# Encapsulation of MAG3 in liposomes was performed by freezing/thawing three times followed by extrusion through a 400 nm filter. The free fraction of the compound was removed by G50 Sephadex column separation.
# The normal liposomes were loaded with MAG3 in 0.9% NaCl and eluted on the G50 column with 25 mM HEPES pH 8, 150 mM NaCl.
# Male Wistar rats were anaesthetized using iso-flurane O2/NO throughout the study. Liposome-encapsulated MAG3 in a 0.5 ml volume was injected subcutaneously (in the neck) and accumulation of radioactivity in the urinary bladder constantly monitored by external counting using a gamma-camera (window: 140 keV, 250 keV width, one minute time resolution). At the end of the study (after 40 minutes), a ten times higher dose of free MAG3 was administered subcutaneously or intravenously to measure the urinary excretion rates of those formulations.
# MscL [6] = biological target: T1, MscL (Escherichia coli, UniProt P0A742); assay: Release from heparin sulfate loaded liposomes with an applied electric field; details: liposome with calcein, negative potential
# T1 construct: made in house; host or cells: E. coli PB104
# T1 sequence (P0A742 2-136): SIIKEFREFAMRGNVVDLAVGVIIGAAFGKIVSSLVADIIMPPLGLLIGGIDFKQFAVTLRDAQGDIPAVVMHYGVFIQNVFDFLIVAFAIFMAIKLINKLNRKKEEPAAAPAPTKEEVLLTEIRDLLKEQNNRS
# Description: In vitro release profiles of a model drug were determined. Liposomes, as in Example 1, with and without MscL-6His, were prepared in the presence of the dye, calcein and heparin sulfate, a natural polymer found in secretory granules. A liposome was inserted into the tip of a glass pipette with the application of suction. The pipette voltage relative to the bath was controlled by a current-to-voltage converter. The solution in both the bath and the pipette was buffered to 6.5 with histamine dichloride and phosphoric acid. An Axopatch 200B was used to apply voltages and to sample the currents at 2.5 ms intervals. Swelling was induced by the application of a negative potential. To measure the swelling, the isolated liposomes were imaged and analyzed as described (J. M. Fernandez, et al., 1991, Biophys. J. 59:1022-1027, and J. R. Monck, et al., 1991; Biophys. J. 59:39-47).
# [7] = Gelation in the presence of surfactants and polymeric micelles; format: physicochemical; design: key: G = gel; C = crystalline; G^a: ^a= not stable
# [8] = Gelation in the presence of surfactants and polymeric micelles; format: physicochemical; design: key: g = gel; i = insoluble; p = precipitate; sol = soluble
# [9] = In vivo delivery of radio-labeled myoglobin with Sunfish/co-lipid complexes
# Description: The low molecular-weight protein myoglobin was chosen as the model protein, the molecular weight is 17.8 kDa and iso-electric point 7.3. To enable quantification of organ uptake of myoglobin, myoglobin was radio-labeled with ^125Iodine-tyramine-cellobiose that is retained within the cell in which it is internalized.
# The complexation was performed by mixing 3.5 μg of myoglobin in Tricine buffer (pH 8.5) with 75 nmol liposomes consisting of Sunfish and co-lipid in a molar ratio of 1:1 in 5% glucose solution.
# Study 2: For complexation, SF-30, in combination with cholesterol in a molar ratio of 1:1, was used. […]
# Study 2: BALB/c mice were injected intravenously with ^125Iodine-tyramine-cellobiose-labeled myoglobin complexed with different PEGylated lipid formulations. The mice were sacrificed after 10, 30 or 120 minutes following injection and the body distribution of ^125Iodine was determined. […]
# The organ uptake is expressed as the percentage of injected dose ^125Iodine (tyramine-cellobiose) radioactivity. […] The total percentage of radioactivity in the blood was determined by multiplying the percentage per milliliter blood by 0.073 times the body weight in grams, being the total blood volume of the mouse. To allow an accurate comparison, the ratio between radioactivity in total blood and reticuloendothelial system (RES=liver+spleen) was expressed. […]
# MscL [10] = biological target: MscL (Escherichia coli, UniProt P0A742, G22C); format: biochemical, E. coli; design: made in house; host or cells: E. coli PB104; details: DOPC:DOPS (90:10) liposomes, 1 mM MTSET
# Description: Results Overexpression and Purification of the MscL Channel Protein
# Samples were prepared and calcein efflux was monitored as described elsewhere in Example 1.
# 300 μl of detergent-treated liposomes were gently mixed with 240 μl of 0.25 mg/ml purified MscL-mutant G22C in elution buffer containing 0.2% Triton X-100. The mixture was incubated at 60° C. for 45 minutes, followed by the addition of an equal volume (540 μl) of calcein-loading buffer, containing 200 mM calcein, 25 mM Tris, 1 mM EDTA, pH 8.0. After addition of 20 mg of Triton X-100-absorbing Bio-Beads SM-2, the mixture was gently agitated for one hour at room temperature. Subsequently, 80 mg Bio-Beads were added and incubated at 4° C. overnight under mild agitation. Samples were prepared for calcein efflux assay as described elsewhere.
# [11] = test system: pB104 strain (MscL null E. coli); assay: MTSET shock assay on agar plates with IPTG; format: cell-based; design: Growth −MTSET-shock: key to the marks not given beside the values
# Description: The constructs of the G20C^Ll, V21C^Ll and G22C^Ec MscL-6His mutants were constructed using standard molecular biology techniques. The mutants were tested in pB104 strain (MscL null E. coli) by a MTSET shock assay on agar plates with IPTG (A. F. Batiza, et al., 2002, PNAS, 99:5643-5648).
# MscL-mutant G22C = MscL-mutant G22C (Escherichia coli, UniProt P0A742, G22C); details: DOPC:DOPS (9:1) liposomes, 1 mM MTSET
# Description: DOPC:DOPS (9:1 mol/mol) liposomes containing the G22C MscL were prepared as described previously. […] The labeled insulin was encapsulated by three freeze-thaw cycles, followed by extrusion through a 400 nm polycarbonate membrane.
# Samples were taken at different time points and triton was added as a control for maximum fluorescence (100%). Samples were filtered over a 450 nm Cellulose Nitrate filter (Schleicher & Schuell BA85). The filtrate of 2 ml was retained and the fluorescence of 200 μl of each filtrate was monitored in a f1600 platereader (Bio-Tek). All experiments were performed in triplo.
molecule,measurement,setting,value
"Cc1sc(C(=O)N[C@H](C)c2ccccc2)cc1C1=C(c2cc(C(=O)N[C@H](C)c3ccccc3)sc2C)CCC1 [Compound D, 1,2-Bis(2′-methyl-5′-{(((R)-1-phenylethyl)amino)carbonyl}thien-3′-yl)cyclopentene]","sol-gel phase transition temperature of gel(c,I)","[1]; 1.8 mM in toluene, after irradiation at 313 nm (PSS)",62 °C
same,sol-gel phase transition temperature of gel(o),"[1]; 1.8 mM in toluene, open form",29 °C
same,increase of thermal stability compared to gel(o),"[1]; gel(c,I)",more than 30 °C
same,solvents gelated,[2],"cyclohexane, 1-phenyloctane, toluene, n-butylether, benzene, tetralin"
"CNC(=O)c1c(I)c(NC(C)=O)c(I)c(C(=O)O)c1I [IOT, Iodo-thalamate]",urinary excretion of IOT after subcutaneous injection,[3],completed in the first couple of hours after injection
CHex(AmEtOEtOH)2(AmPhe-pNA) [compound 16],time until gel turned slightly yellow (release of nitroaniline),"α-chymotrypsin; 0.25 wt % prodrug in mixed gel, 0.5 wt % gelator",20 h
same,time until solution turned bright yellow (release of nitroaniline),α-chymotrypsin; prodrug in solution layered with α-chymotrypsin,20 min
O=S(=O)(O)CCN1CCOCC1 [MES],time for subcutaneous pH to return to pH 7.4,[4]; 50 mM,ten
same,time for subcutaneous pH to return to pH 7.4,[4]; 100 mM,ten
same,time pH remained below pH 6.5,[4]; 250 mM,more than 30 minutes
mertiatide [MAG3],time to 50% urinary excretion,[5]; intravenous,3 min
same,time to 50% urinary excretion,[5]; subcutaneous,> 12 min
heparin sulfate,swelling on applied voltage,MscL [6],swelled instantaneously and predictably with the application of a negative voltage
"O=C(N[C@@H](CSSC[C@H](NC(=O)c1ccccc1)C(=O)O)C(=O)O)c1ccccc1 [DBC, dibenzoyl-L-cystine, reference compound]",Gelation properties,"[7]; CTAB < CMC, * pH reversible gelation",G
same,Gelation properties,"[7]; CTAB < CMC, ** pH reversible then thermoreversible gelation",G
same,Gelation properties,"[7]; CTAB > CMC, * pH reversible gelation",G
same,Gelation properties,"[7]; CTAB > CMC, ** pH reversible then thermoreversible gelation",G
same,Gelation properties,"[7]; Lactose der. < CMC, * pH reversible gelation",G
same,Gelation properties,"[7]; Lactose der. < CMC, ** pH reversible then thermoreversible gelation",G
same,Gelation properties,"[7]; Lactose der. > CMC, * pH reversible gelation",G
same,Gelation properties,"[7]; Lactose der. > CMC, ** pH reversible then thermoreversible gelation",G
same,Gelation properties,[7]; Nonionic (Lactose der.) < CMC,G
same,Gelation properties,[7]; Nonionic (Lactose der.) > CMC,G
same,Gelation properties,"[7]; Pluronic P 105, 100 mg · ml^−1",g^a
same,Gelation properties,"[7]; SDS < CMC, * pH reversible gelation",G
same,Gelation properties,"[7]; SDS < CMC, ** pH reversible then thermoreversible gelation",G
same,Gelation properties,"[7]; SDS > CMC, * pH reversible gelation",G
same,Gelation properties,"[7]; SDS > CMC, ** pH reversible then thermoreversible gelation",G
same,Gelation properties,[7]; anionic (SDS) < CMC,G
same,Gelation properties,[7]; anionic (SDS) > CMC,G
same,Gelation properties,[7]; cationic (CTAB) < CMC,G
same,Gelation properties,[7]; cationic (CTAB) > CMC,C
same,response of gel to reducing agent,"1 wt % gel, tris-(2-carboxy ethyl)phosphine",gel-to-sol transition
same,gelation by pH decrease through D-gluconic acid formation,"D-glucose, glucose oxidase, catalase, NaHCO3, after three days",completely gelified
same,Gelation properties,"[8]; Pluronic P 105, 5 mg · ml^−1",g
same,Gelation properties,"[8]; Pluronic P 105, 5 mg · ml^−1, * pH reversible gelation",g
same,Gelation properties,"[8]; Pluronic P 105, 5 mg · ml^−1, ** pH reversible then thermoreversible gelation",g
same,Gelation properties,"[8]; Pluronic P 105, 100 mg · ml^−1, * pH reversible gelation",g
same,Gelation properties,"[8]; Pluronic P 105, 100 mg · ml^−1, ** pH reversible then thermoreversible gelation",g
1-(polyethyleneglycol5000-ω-methylether)-4-(10′-cis-nonadecenyl)pyridinium Bromide [SF-79],blood/RES ratio,"[9]; 30 minutes after administration, complex containing 20% SF-79",one
same,circulation time / radioactivity in the blood,"[9]; 120 minutes after injection, PEGylated complexes",the highest amount of radioactivity in the blood
B1,encapsulated calcein released,MscL [10],80%
same,time in which half of the MscL-mediated efflux occurs,MscL [10],seven
same,Growth after +MTSET-shock,[11],−
same,Growth −MTSET-shock,[11],++++
same,FITC insulin efflux,MscL-mutant G22C,release of FITC insulin through MscL-mutant G22C upon activation with 1 mM MTSET
